# Where two headings read alike, the source gives them in different places.
# What was measured:
# [1] = Pharmacokinetic analysis of GR3027 in plasma after i.v. and p.o. administration; assay type: in vivo, rat; settings: for AUC: male Sprague-Dawley rats, 0-24 h; for Cmax / Tmax / half-life: rat plasma; for half-life: read-out: t½; for k el: in vivo
# Procedure: Ten male Sprague-Dawley rats were used to assess PK with GR3027 given orally and intravenously, respectively. Animals were kept at room temperature with artificial light under a 12/12 h light/dark schedule, and with food and water ad libitum. Animals were given 2 mg/kg i.v. in 10% 2-hydroxypropyl-beta-cyclodextrin or 10 mg/kg orally. Approximately 50 µL blood samples were taken at 15 min, 30 min, 1 h, 2 h, 4 h, 8 h, 12 h, and 24 h after oral dosing, and 5 min, 15 min, 30 min, 1 h, 2 h, 4 h, 8 h, 12 h, and 24 h after intravenous dosing, and plasma was frozen. The analysis method has been described earlier and is here briefly described. All the samples were analyzed in triplicate by Admescope Ltd., Oulu, Finland, using an LC/MS/MS method developed for the purpose, using a Waters ACQUITY UPLC_Waters XEVO-TQS triple-quadrupole mass spectrometer.
# Blood/plasma samples were obtained at several time points after the i.v. and p.o. administration of GR3027 to rats. The maximum plasma concentration (Cmax) and the time to Cmax (Tmax) were derived directly from the plasma concentration data. The results are shown in Table 4 as the area under the concentration–time curve (AUC, 0–24 h), elimination half-life in plasma (t1/2), elimination rate constant (Ke), total body clearance (CL), and mean residence time (MRT), i.e., how long GR3027 remained in the body. The tentative oral bioavailability (F) was calculated by dividing the dose-normalized AUC after p.o. administration by the dose-normalized AUC after i.v. administration, i.e., F = [(AUC(p.o.)/Dose(p.o.))///(AUC(i.v)/Dose (i.v.))], and reported as percentages (%).
# [2] = test system: patients with hepatic encephalopathy; parameters: method as in PMID 33894327; settings: humans; cited from earlier work
# [3] = biological target: T1, human α1β2γ2L GABAA receptors expressed in HEK-293 cells (Homo sapiens, UniProt P14867+P47870); test: Whole-cell patch clamp of GABA/THDOC-evoked currents, synaptic protocol (Dynaflow); assay type: cell-based; settings: for Reduction of AUC of THDOC-induced GABA response: n = 8, p ≤ 0.05
# T1 construct: The coding regions of the human GABAA receptor subunits were then amplified by PCR; expressed in transfected cells; host or cells: HEK-293 (permanently transfected, pcDNA3.1 vectors, CMV promoter)
# Source text: Wild-type HEK-293 cells (passage 4, originating from Pasteur Institute, Paris, France) were permanently transfected with vectors including the human CMV promoter for the constitutive expression of the human α5, β3, and γ2L GABAA receptor subunits (α5β3γ2L) or the human α1, β2, and γ2L GABAA receptor subunits (α1β2γ2L). The production of the plasmids used in the sub-cloning of the different subunits is published in Rahman et al..
# The electrophysiological recordings from HEK-293 cells were performed with the whole-cell voltage clamp technique, at room temperature (21–23 °C). After compensation for liquid junction potential, a steady holding potential of −17 mV was used in all experiments. Patch pipettes were pulled from borosilicate glass (Bergman Labora AB, Danderyd, Sweden) and polished to a resistance of 2–5 MΩ when filled with intracellular solution and immersed in a bath (extracellular) solution (for solutions, see below). The pipette tips were filled by immersion in standard intracellular solution and subsequent back-filling with intracellular solution. The recordings were made using an Axopatch 200B amplifier and a Digidata 1322A (Axon Instruments, Foster City, CA, USA) controlled via a Pentium processor-based personal computer. Data were acquired using the pCLAMP software sampled at 10 kHz, filtered at 2–10 kHz, and analyzed with Clampfit (versions 9.0, both from Axon Instruments, Foster City, CA, USA). A series resistance between the pipette and cell membrane not higher than 20 MΩ was accepted. No series resistance compensation was used. The stability of series resistance was monitored repeatedly from the time course of capacitative transients during the experiments. The measured liquid junction potential between extracellular and intracellular solutions was subtracted from all data presented, as previously described. All experiments were performed at room temperature (21–23 °C).
# In all electrophysiological experiments, tetrahydro-deoxycorticosterone (THDOC) was used as a positive GABAA receptor steroid modulator (PAM) to mimic the effect of AP on central GABAA channels. […] THDOC (Sigma Chemical Co., St. Louis, MO, USA) and GR3027 (3α-ethynyl, 3β-hydroxyl, 5α-androstan-17-oxime, golexanolone, Umecrine Cognition AB, Stockholm, Sweden) were dissolved in dimethyl sulfoxide (DMSO) using ultrasound, for the preparation of solutions containing a final DMSO concentration of 0.1%. GR3027 was discovered within a series of molecules developed and patented by T. Bäckström and G. Ragagnin, (patent WO 2008/063128). All solutions were complemented with DMSO to achieve the same final concentration as in the steroid-containing test solution. GABA (Sigma Chemical Co., St. Louis, MO, USA) was first prepared as a stock solution (dissolved in EC with ultrasonic treatment) to the desired concentrations, with the corresponding final concentrations of test solutions (30 µM and 0.3 µM; see protocols below). GABA was added to the experimental solution without a change in osmolarity.
# The experimental protocols were designed to mimic the physiological conditions of the tonic (extra-synaptic) and phasic (synaptic) activation of GABAA receptors observed in central neurons, depending on the subunit compositions, respectively. GABA-evoked currents in HEK-293 cells expressing extra-synaptic (α5β3γ2L) or synaptic (α1β2γ2L) types of GABAA receptors were studied using the conventional whole-cell patch clamp technique. To mimic the physiological GABA exposure, the HEK-293 cells expressing α1β2γ2L GABAA receptors were exposed to short applications (40 ms) of 30 µM GABA, whereas HEK-293 cells expressing α5β3γ2L GABAA receptors were exposed to prolonged applications (6 s) of 0.3 µM GABA, either in the absence or presence of THDOC and/or GR3027.
# [4] = male, Sprague-Dawley, iv, 2 mg/kg i.v., mean
# [5] = male, Sprague-Dawley, po, 10 mg/kg p.o., mean
# T1 sequence (P14867 28-456): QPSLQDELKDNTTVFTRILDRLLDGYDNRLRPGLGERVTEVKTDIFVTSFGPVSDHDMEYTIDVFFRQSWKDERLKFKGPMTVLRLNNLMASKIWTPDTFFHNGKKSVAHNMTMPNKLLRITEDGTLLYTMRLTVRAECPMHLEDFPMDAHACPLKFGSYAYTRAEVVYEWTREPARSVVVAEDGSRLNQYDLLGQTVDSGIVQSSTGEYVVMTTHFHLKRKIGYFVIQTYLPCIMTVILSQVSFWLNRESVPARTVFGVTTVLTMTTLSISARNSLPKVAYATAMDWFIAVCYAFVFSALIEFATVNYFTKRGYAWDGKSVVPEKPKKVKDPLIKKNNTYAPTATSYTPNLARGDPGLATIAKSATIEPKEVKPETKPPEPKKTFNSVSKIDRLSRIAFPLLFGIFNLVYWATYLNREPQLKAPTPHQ
# T1 sequence (P47870 25-512 limits assumed): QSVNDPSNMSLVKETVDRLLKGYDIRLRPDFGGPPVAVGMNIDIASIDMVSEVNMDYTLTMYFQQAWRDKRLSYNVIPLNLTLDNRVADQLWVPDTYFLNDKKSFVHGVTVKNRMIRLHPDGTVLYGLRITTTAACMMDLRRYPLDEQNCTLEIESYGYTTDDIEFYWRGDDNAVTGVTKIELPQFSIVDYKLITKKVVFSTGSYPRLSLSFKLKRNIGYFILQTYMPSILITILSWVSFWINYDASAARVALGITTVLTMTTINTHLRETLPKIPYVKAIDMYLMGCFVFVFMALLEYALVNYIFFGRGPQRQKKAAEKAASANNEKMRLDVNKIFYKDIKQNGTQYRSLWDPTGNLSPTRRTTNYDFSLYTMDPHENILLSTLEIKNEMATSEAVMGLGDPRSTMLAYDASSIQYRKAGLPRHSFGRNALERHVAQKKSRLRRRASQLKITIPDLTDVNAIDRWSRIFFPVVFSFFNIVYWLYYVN
# T1 sequence (P18507 40-475 partner): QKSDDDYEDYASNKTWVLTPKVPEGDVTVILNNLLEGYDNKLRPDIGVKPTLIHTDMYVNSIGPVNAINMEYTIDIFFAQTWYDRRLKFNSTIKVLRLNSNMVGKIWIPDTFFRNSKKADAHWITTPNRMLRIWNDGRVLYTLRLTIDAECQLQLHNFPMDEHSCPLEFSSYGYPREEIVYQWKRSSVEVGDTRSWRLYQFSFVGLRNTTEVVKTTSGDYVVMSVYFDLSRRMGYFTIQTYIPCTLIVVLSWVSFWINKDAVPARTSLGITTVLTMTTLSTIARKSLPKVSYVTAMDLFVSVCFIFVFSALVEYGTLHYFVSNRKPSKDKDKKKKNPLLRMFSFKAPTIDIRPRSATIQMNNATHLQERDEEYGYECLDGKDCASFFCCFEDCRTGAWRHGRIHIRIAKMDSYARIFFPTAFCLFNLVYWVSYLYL
smiles,measurement,setting,value
"C#C[C@]1(O)CC[C@@]2(C)[C@@H](CC[C@@H]3[C@@H]2CC[C@]2(C)/C(=N/O)CC[C@@H]32)C1 [GR3027, 3α-ethynyl-3β-hydroxyl-5α-androstan-17-oxime]",AUC,"[1]; 2 mg/kg i.v., plasma, mean",2205586 min ∗ ng/mL
same,AUC,"[1]; 10 mg/kg p.o., plasma, mean",113568 min ∗ ng/mL
same,Cmax,[1]; [4],74500 ng/mL
same,Tmax,[1]; [4],0.0833 h
same,half-life,[1]; [4],11.3 h
same,MRT,"[1]; male, Sprague-Dawley, plasma, iv, 2 mg/kg i.v., rat, mean",0.277 h
same,clearance,"[1]; male, Sprague-Dawley, plasma, iv, 2 mg/kg i.v., rat, mean, read-out: Cl (total body clearance)",1.09 mL/min/kg
same,bioavailability,"[1]; male, Sprague-Dawley, plasma, oral, 10 mg/kg p.o. vs 2 mg/kg i.v., dose-normalized AUC, rat, read-out: F (tentative oral bioavailability)",1%
same,MRT,"[1]; male, Sprague-Dawley, plasma, po, 10 mg/kg p.o., rat, mean",4.73 h
same,Cmax,[1]; [5],504 ng/mL
same,Tmax,[1]; [5],0.567 h
same,half-life,[1]; [5],5.17 h
same,k el,"[1]; male, Sprague-Dawley, rat, iv, 2 mg/kg",2e-05 s⁻¹
same,k el,"[1]; male, Sprague-Dawley, rat, po, 10 mg/kg",4.17e-05 s⁻¹
same,Effect in patients with hepatic encephalopathy,[2],"improves EEG, vigilance, and cognition"
same,Reduction of AUC of THDOC-induced GABA response,[3]; 1 µM GR3027 + 200 nM THDOC + 30 µM GABA (40 ms),−11.6 ± 3.1
same,"Change of AUC of GABA-mediated current, GR3027 alone","[3]; 1 µM GR3027 + 30 µM GABA, no THDOC, NS, n = 21",–3.1 ± 1.7%
same,Reduction of AUC of THDOC-induced GABA response,[3]; 3 µM GR3027 + 200 nM THDOC + 30 µM GABA (40 ms),−22.9 ± 2.8
same,Decrease in THDOC-mediated baseline holding current shift,"[3]; 3 µM GR3027, 200 nM THDOC, absence of GABA, n = 7, p ≤ 0.05",−38.1 ± 7.6%
same,"Effect on baseline holding current or 30 µM GABA-mediated currents, GR3027 alone","[3]; GR3027 alone, no THDOC",No difference
same,Effect on THDOC-induced GABA currents at lower concentrations,"[3]; GR3027 below 1 µM (tested from 0.1 µM), 200 nM THDOC + 30 µM GABA",no reduction
